The source of these data is PubChem BioAssay (NCI).

“And” between values parts separate entries of the source, which are not always exact repeats. Equal entries are not always repeated.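 Protocol summary: plate cells (96-well), add compound at 5 concentrations, incubate 48 h, interpolate endpoints linearly. GI50: concentration for 50% inhibition of growth. TGI: total growth inhibition.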 Some results are limits rather than exact numbers.

Test systems include MDA-N; HS 578T breast; KM20L2 colon; SNB-78 CNS; DLD-1 colon; XF 498 CNS; HOP-18 NSCLC; RXF-631 renal; LXFL 529 NSCLC.
What all share (assay): NCI-60 cell line screen, 48 h

Turning to `CC(C)[C@H](O)C(=O)N[C@H]1Cc2ccc3c(c2)[C@]24C5=C(N=C(O5)[C@H](C(C)C)NC1=O)c1nc(Cl)c(o1)-c1c(Cl)[nH]c5cccc(c15)-c1cccc2c1N[C@H]4O3`, the TGI in the assay with MDA-N is 0.00429 µM; in the assay on HS 578T breast, over 10 µM.

For the compound `O=C(Nc1cc([N+](=O)[O-])cc([N+](=O)[O-])c1)OC1C2CCC1C1OC1C2` (centres undefined), the TGI in the assay on KM20L2 colon, in the assay on SNB-78 CNS and in the assay with DLD-1 colon was over 50 µM throughout.

For `C=CC1=C(C)C(Cc2[nH]c(/C=c3\[nH]/c(=C/C4=NC(=O)C(C)/C4=C\C)c(C)c3CCC(=O)O)c(CCC(=O)OC)c2C)NC1=O` (centres undefined), in the assay on MDA-N, the GI50 was 25.6 µM and the TGI came out at 66.7 µM.

`CC(C)(C)[Si](Nc1ccccc1)(c1ccccc1)c1ccccc1`: the TGI amounted to 31.7 µM in the assay on KM20L2 colon; 27.8 µM with XF 498 CNS; 26.7 µM in the assay on HOP-18 NSCLC; 30.4 µM in the assay with SNB-78 CNS; 29.6 µM with RXF-631 renal.

On to `NC(N)=N/N=C(/c1ccccc1)c1ccc(O)cc1O`, for which the TGI with MDA-N amounted to 28.6 µM; in the assay with HS 578T breast, 80.3 µM.

Consider `O=C(Nc1ccccc1)OCc1nc2c([nH]1)C(=O)C=CC2=O`, for which the TGI in the assay on KM20L2 colon is 41 µM; in the assay with XF 498 CNS it was 30.9 µM; in the assay on LXFL 529 NSCLC it was 11.1 µM; in the assay on HOP-18 NSCLC it was 23 µM; with SNB-78 CNS it was 45.3 µM; in the assay with DLD-1 colon, over 100 µM.

With `CCCCCC/C=C\CCCCCCCCCc1c(O)c(OC)cc(O)c1CN(C)C`, the TGI with MDA-N was determined as 32.2 µM; in the assay with HS 578T breast it was 10.9 µM.

On to `COc1ccc(CC(C#N)c2cc(OC)c(OC)c(OC)c2)cc1` (centres undefined), for which the TGI in the assay with KM20L2 colon was 0.195 µM; with XF 498 CNS it was 28.6 µM; in the assay with LXFL 529 NSCLC it was over 100 µM; with SNB-78 CNS, over 100 µM; with HS 578T breast, over 100 µM; in the assay on DLD-1 colon it was over 100 µM.

Take `C=C(C)C1CCC2(CO)C(O)CC3(C)C(CCC4C5(C)CCC(O)C(C)(C)C5CCC43C)C12` (centres undefined): the TGI in the assay on MDA-N was over 100 µM; with HS 578T breast, 90.7 µM.

Consider `NC(=O)C12CCC1C1CCCCC12N1CCOCC1` (centres undefined), for which the TGI in the assay with KM20L2 colon, with LXFL 529 NSCLC, in the assay on HOP-18 NSCLC, with SNB-78 CNS, in the assay with DLD-1 colon and in the assay with RXF-631 renal was over 100 µM each time.

Regarding `C=C(C)C(=O)N1c2ccc(OC)cc2CC1C(=O)OCC` (centres undefined), the TGI with MDA-N and with HS 578T breast was over 100 µM throughout.

Regarding `CC(=O)Oc1cc(OC(C)=O)c2cc3c(cc2c1OC(C)=O)C(=O)C1(CCCC1)C3=O`, the TGI is 46.3 µM in the assay on KM20L2 colon; 30 µM in the assay with XF 498 CNS; 38.5 µM in the assay on HOP-18 NSCLC; 50 µM in the assay on SNB-78 CNS; 37 µM with DLD-1 colon.

Regarding `COc1cc(C(=C2SCCS2)c2nccc3cc(OC)c(OC)cc23)c([N+](=O)[O-])cc1OC`, the TGI in the assay with KM20L2 colon, with XF 498 CNS, in the assay with LXFL 529 NSCLC, in the assay with HOP-18 NSCLC, in the assay on SNB-78 CNS and with DLD-1 colon was over 100 µM in each case.

As to `O=c1cc(-c2ccc[nH]2)[nH]c2cc3c(cc12)OCO3`, in the assay with KM20L2 colon, the GI50 was 20.1 µM. The TGI with KM20L2 colon was 42.6 µM; in the assay on XF 498 CNS it was 89.2 µM; in the assay with LXFL 529 NSCLC, over 100 µM; in the assay on DLD-1 colon, over 100 µM; in the assay with RXF-631 renal, over 100 µM.

Regarding `O=C(O)CCc1nc(-c2ccccc2)c(-c2ccccc2)o1`, the TGI in the assay on MDA-N and with HS 578T breast was over 100 µM throughout.

Consider `CN(/C(=N\O)c1ccccc1)c1ccccc1`, for which the TGI in the assay on KM20L2 colon was 41.5 µM; with LXFL 529 NSCLC, over 100 µM; in the assay with SNB-78 CNS, 88.7 µM; in the assay on DLD-1 colon, over 100 µM.

As for `C[n+]1ccc2[nH]c3ccccc3c2c1`, the TGI in the assay on KM20L2 colon, in the assay with LXFL 529 NSCLC, with HOP-18 NSCLC, in the assay with SNB-78 CNS and in the assay on DLD-1 colon was over 100 µM each time.

Turning to `CN(C(=O)C1CC1)C1C2CN3CCC(O2)C13` (centres undefined), the TGI in the assay on KM20L2 colon, with LXFL 529 NSCLC, with HOP-18 NSCLC, in the assay on SNB-78 CNS and in the assay on DLD-1 colon was over 100 µM throughout.

Regarding `N=C(N)Cn1cnc2ccccc21`, the TGI with KM20L2 colon, in the assay with LXFL 529 NSCLC, with HOP-18 NSCLC and with SNB-78 CNS was over 100 µM in each case.

For `CCOC(CN(C)C(=O)OCC(Cl)(Cl)Cl)OCC`, the TGI with MDA-N and with HS 578T breast was over 100 µM in each case.

As for `CCN1CCC(O)(c2ccc(Cl)c(Cl)c2)C(C(=O)c2ccc(Cl)c(Cl)c2)C1` (centres undefined), the TGI in the assay with KM20L2 colon is 36.6 µM; with XF 498 CNS, 34.4 µM; in the assay with LXFL 529 NSCLC, 30.1 µM; in the assay with DLD-1 colon it was 33 µM.

Take `COc1ccc(NCc2c(O)ccc3ccccc23)cc1`: the TGI in the assay on MDA-N and in the assay on HS 578T breast was over 100 µM in each case.

Take `CCc1ccccc1NC(=O)C1=C(C)NC(C)=C(C(=O)Nc2ccccc2CC)C1c1ccc(NC(C)=O)cc1`: the TGI with KM20L2 colon came to 58.8 µM; with LXFL 529 NSCLC, 87.2 µM; in the assay with SNB-78 CNS, 82.1 µM; in the assay on DLD-1 colon, 87.6 µM.

As to `CCCCCCCCCCCCCCCCCCOCC1(COP(=O)([O-])OCC[N+](C)(C)C)CCCO1` (centres undefined), the TGI in the assay on KM20L2 colon was 11.9 µM; in the assay on XF 498 CNS, 20.5 µM; in the assay on LXFL 529 NSCLC, 16.6 µM; with HOP-18 NSCLC, 10.9 µM; in the assay on SNB-78 CNS, 29.5 µM; in the assay on DLD-1 colon it was 12.5 µM.

`Cn1c(=O)c2[nH]cnc2n(CC(=O)O)c1=O`: the TGI in the assay on KM20L2 colon, in the assay with XF 498 CNS, in the assay on LXFL 529 NSCLC, in the assay on SNB-78 CNS, with DLD-1 colon and with RXF-631 renal was over 100 µM each time.

On to `NC(=O)N/N=C1/CCCC/C1=C\c1ccccc1`, for which the TGI in the assay on KM20L2 colon, in the assay on LXFL 529 NSCLC, in the assay with HOP-18 NSCLC, with SNB-78 CNS, in the assay with DLD-1 colon and with RXF-631 renal was over 100 µM throughout.

In turn, `CN1CCN(c2ccc([N+](=O)[O-])c3no[n+]([O-])c23)CC1` showed a TGI in the assay with MDA-N of 2.74 µM. For the same compound, in the assay on HS 578T breast, the GI50 was 0.228 µM; the TGI was 2.41 µM and 1.93 µM.

For `CCCCCCCCCCCCOC(=S)NC`, the TGI in the assay with KM20L2 colon is 33.9 µM; in the assay with XF 498 CNS, 35.7 µM; in the assay with LXFL 529 NSCLC, 31.4 µM; in the assay on HOP-18 NSCLC, 50.1 µM; with SNB-78 CNS, 61.8 µM; with DLD-1 colon it was 34.3 µM.

Regarding `Cc1ccc2oc(=O)cc(C3c4ccc([nH]4)C(c4cc(=O)oc5ccc(C)cc45)c4ccc([nH]4)C(c4cc(=O)oc5ccc(C)cc45)c4ccc([nH]4)C(c4cc(=O)oc5ccc(C)cc45)c4ccc3[nH]4)c2c1` (centres undefined), in the assay on HS 578T breast, the GI50 was 0.0351 µM and the TGI worked out at 2.02 µM.

Consider `O=C(O)C1=C(Cl)c2ccccc2S1(=O)=O`, for which the TGI with KM20L2 colon, in the assay on XF 498 CNS, with LXFL 529 NSCLC, with SNB-78 CNS, in the assay with DLD-1 colon and in the assay with RXF-631 renal was over 100 µM throughout.

Take `COc1cc(CCC(=O)NS(=O)(=O)c2ccccc2)cc(OC)c1OC`: the TGI in the assay on KM20L2 colon, with XF 498 CNS, in the assay on LXFL 529 NSCLC, with HOP-18 NSCLC, in the assay on SNB-78 CNS and in the assay on DLD-1 colon was over 100 µM each time.

Take `CC(=O)[CH-]C(=O)c1ccccc1.CC(=O)[CH-]C(=O)c1ccccc1.CC[O-].O=C1C=C([O-])C(=O)c2ccccc21.[Ti+4]`: the GI50 in the assay with KM20L2 colon was 42.4 µM; with LXFL 529 NSCLC it was 48.8 µM; in the assay with HOP-18 NSCLC, 95.4 µM; in the assay with DLD-1 colon, over 100 µM. Further, the TGI in the assay with KM20L2 colon, in the assay with LXFL 529 NSCLC, in the assay on HOP-18 NSCLC and in the assay with DLD-1 colon was over 100 µM in each case.

For `COC(=O)c1cccc2c1Oc1ccccc1S2`, the TGI with MDA-N and with HS 578T breast was over 100 µM in each case.

For the compound `CC(C)(C)n1cc(-c2ccnc(NCCCNS(=O)(=O)c3ccc(Cl)cc3)c2)c(-c2cccc(O)c2)n1`, in the assay with HS 578T breast, the GI50 was 1.84 µM and the TGI amounted to 4.81 µM.

In the case of `O=C(Cc1nc2ccccc2s1)C(=O)Nc1ccc(Cl)cc1Cl`, the TGI in the assay with KM20L2 colon, with XF 498 CNS, in the assay on LXFL 529 NSCLC, with SNB-78 CNS, in the assay with DLD-1 colon and with RXF-631 renal was over 100 µM each time.

As for `CN(C)NC(=S)NC12CC3CC(CC(C3)C1)C2`, the TGI in the assay on KM20L2 colon, in the assay on XF 498 CNS, with LXFL 529 NSCLC, with HOP-18 NSCLC, with SNB-78 CNS and with DLD-1 colon was over 100 µM each time.

`CN(C)CCC(=O)NCc1c2nc3ccccc3nc2n2ccccc12`: in the assay on HS 578T breast, the GI50 was over 100 µM and the TGI is over 100 µM.
